One assay deals with PTGER2 (EP2) (Homo sapiens (Human), UniProt P43116). In words: hEP2 b-arrestin assay (PathHunter HEK 293 PTGER2 b-arrestin cells). As to conditions: hEP2 b-arrestin assay (values without asterisk). It is filed as cell-based. In a few lines:
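Readout is β-galactosidase complementation luminescence, expressed as percent of DMSO control (duplicates). PathHunter HEK293 EP2/β-arrestin 2 cells, grown 24 h, received compound for 15 min at 37 °C before a 120 min challenge with PGE2 at 5 μM final, followed by 1 h detection at room temperature.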

The target of a further assay is PTRGER4 (EP4) (Homo sapiens (Human), UniProt P35408). In words: hEP4 b-arrestin assay (PathHunter HEK 293 PTGER4 b-arrestin cells). It is filed as cell-based. As to conditions: hEP4 b-arrestin assay (values without asterisk). In outline: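 Antagonist mode: compound is given 15 min at 37 °C, then 20 nM (final) PGE2 for 120 min, in HEK293 cells stably expressing EP4 fused to ProLink and β-arrestin 2 fused to EA. Recruitment read as β-gal luminescence after 1 h reagent at room temperature, as percent of DMSO control.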

Structures are written as SMILES.

Chain of PTRGER4 (EP4) (P35408 whole entry, looked up, the tested form may be a part): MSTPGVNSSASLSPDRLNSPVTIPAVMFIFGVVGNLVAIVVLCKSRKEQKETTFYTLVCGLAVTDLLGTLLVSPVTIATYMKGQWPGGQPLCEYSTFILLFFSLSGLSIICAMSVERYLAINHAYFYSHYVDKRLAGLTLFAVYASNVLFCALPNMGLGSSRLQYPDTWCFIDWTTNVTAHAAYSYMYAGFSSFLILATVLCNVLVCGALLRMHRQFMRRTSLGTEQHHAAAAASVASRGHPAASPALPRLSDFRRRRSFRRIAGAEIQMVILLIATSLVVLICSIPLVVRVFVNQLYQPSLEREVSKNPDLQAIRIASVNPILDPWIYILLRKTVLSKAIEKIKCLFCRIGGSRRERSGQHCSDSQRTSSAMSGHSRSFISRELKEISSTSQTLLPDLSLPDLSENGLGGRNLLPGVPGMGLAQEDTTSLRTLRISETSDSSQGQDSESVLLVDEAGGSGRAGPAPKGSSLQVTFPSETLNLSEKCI
Chain of PTGER2 (EP2) (P43116 whole entry): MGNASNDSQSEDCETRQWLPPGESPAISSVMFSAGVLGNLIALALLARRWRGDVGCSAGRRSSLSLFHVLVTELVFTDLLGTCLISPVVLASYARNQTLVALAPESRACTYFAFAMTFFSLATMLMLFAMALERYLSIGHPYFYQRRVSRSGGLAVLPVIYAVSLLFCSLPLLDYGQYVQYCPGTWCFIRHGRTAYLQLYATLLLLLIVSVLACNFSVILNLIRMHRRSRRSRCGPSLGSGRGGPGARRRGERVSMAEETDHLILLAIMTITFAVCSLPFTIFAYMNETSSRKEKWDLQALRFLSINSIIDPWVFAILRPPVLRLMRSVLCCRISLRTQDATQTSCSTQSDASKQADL

In the case of `CCOc1cc(-c2cc(NCCn3c(C#N)cc4c(OC)ccc(F)c43)ncn2)sc1C(=O)NO` [Example 1030, 5-{6-[2-(2-Cyano-7-fluoro-4-methoxy-indol-1-yl)-ethylamino]-pyrimidin-4-yl}-3-ethoxy-thiophene-2-carboxylic acid hydroxyamide], the IC50 (as a rule, the concentration that inhibits the measured activity by half) on PTGER2 (EP2) amounted to 15 nM; against PTRGER4 (EP4), 3 nM.

Consider `CCOc1cc(-c2cc(NCCn3c(C)cc4c(OC)ccc(F)c43)ncn2)sc1CO` [Example 1031, (3-Ethoxy-5-{6-[2-(7-fluoro-4-methoxy-2-methyl-indol-1-yl)-ethylamino]-pyrimidin-4-yl}-thiophen-2-yl)methanol], for which the IC50 at PTGER2 (EP2) was 3 nM; against PTRGER4 (EP4), 19 nM.

Consider `COc1ccc(F)c2c1cc(C)n2CCNc1cc(-c2nc(OC(C)C)c(C(=O)O)s2)ncn1` [Example 1032, 2-{6-[2-(7-Fluoro-4-methoxy-2-methyl-indol-1-yl)-ethylamino]-pyrimidin-4-yl}-4-isopropoxy-thiazole-5-carboxylic acid], for which the figures for the IC50 on PTGER2 (EP2) and at PTRGER4 (EP4) were 10 nM and 14 nM, respectively.

`COc1nc(-c2cc(NCCn3c(C)cc4c(OC)ccc(F)c43)ncn2)sc1C(=O)O` [Example 1033, 2-{6-[2-(7-Fluoro-4-methoxy-2-methyl-indol-1-yl)-ethylamino]-pyrimidin-4-yl}-4-methoxy-thiazole-5-carboxylic acid]: the IC50 is 7 nM on PTGER2 (EP2) and 37 nM against PTRGER4 (EP4).

`CCOc1nc(-c2cc(NCCn3c(C)cc4c(OC)ccc(F)c43)ncn2)sc1C(=O)O` [Example 1034, 4-Ethoxy-2-{6-[2-(7-fluoro-4-methoxy-2-methyl-indol-1-yl)-ethylamino]-pyrimidin-4-yl}-thiazole-5-carboxylic acid]: the IC50 came to 5 nM at PTGER2 (EP2) and 17 nM against PTRGER4 (EP4).

Turning to `CCCOc1nc(-c2cc(NCCn3c(C)cc4c(OC)ccc(F)c43)ncn2)sc1C(=O)O` [Example 1035, 2-{6-[2-(7-Fluoro-4-methoxy-2-methyl-indol-1-yl)-ethylamino]-pyrimidin-4-yl}-4-propoxy-thiazole-5-carboxylic acid], the IC50 on PTGER2 (EP2) came to 2 nM; at PTRGER4 (EP4), 29 nM.

As to `COc1ccc(F)c2c1cc(C)n2CCNc1cc(-c2nc(CC(C)C)c(C(=O)O)s2)ncn1` [Example 1036, 2-{6-[2-(7-Fluoro-4-methoxy-2-methyl-indol-1-yl)-ethylamino]-pyrimidin-4-yl}-4-isobutyl-thiazole-5-carboxylic acid], the IC50 on PTGER2 (EP2) is 24 nM; on PTRGER4 (EP4), 20 nM.

Consider `CCc1nc(-c2cc(NCCn3c(C)cc4c(OC)ccc(F)c43)ncn2)sc1C(=O)O` [Example 1037, 4-Ethyl-2-{6-[2-(7-fluoro-4-methoxy-2-methyl-indol-1-yl)-ethylamino]-pyrimidin-4-yl}-thiazole-5-carboxylic acid], for which the values for the half-inhibitory concentration (IC50) on PTGER2 (EP2) and against PTRGER4 (EP4) were 60 nM and 100 nM, respectively.

On to `COc1ccc(F)c2c1cc(C)n2CCNc1cc(-c2nc(C(C)(C)C)c(C(=O)O)s2)ncn1` [Example 1038, 4-tert-Butyl-2-{6-[2-(7-fluoro-4-methoxy-2-methyl-indol-1-yl)-ethylamino]-pyrimidin-4-yl}-thiazole-5-carboxylic acid], for which the results for the concentration for half-maximal inhibition (IC50) on PTGER2 (EP2) and on PTRGER4 (EP4) were 64 nM and 20 nM, respectively.

On to `COc1ccc(F)c2c1cc(C)n2CCNc1cc(-c2ccc(C(=O)O)c(OC3CC4(COC4)C3)c2)ncn1` [Example 1039, 4-{6-[2-(7-Fluoro-4-methoxy-2-methyl-indol-1-yl)-ethylamino]-pyrimidin-4-yl}-2-(2-oxaspiro[3.3]hept-6-yloxy)-benzoic acid], for which the IC50 against PTGER2 (EP2) turned out to be 104 nM; against PTRGER4 (EP4), 224 nM.

Regarding `CCOc1cc(-c2cc(NCCn3c(C)cc4c(OC)ccc(F)c43)ncn2)ccc1C(=O)CO` [Example 1040, 1-(2-Ethoxy-4-{6-[2-(7-fluoro-4-methoxy-2-methyl-indol-1-yl)-ethylamino]-pyrimidin-4-yl}-phenyl)-2-hydroxy-ethanone], the half-inhibitory concentration (IC50) was 91 nM at PTGER2 (EP2) and 407 nM against PTRGER4 (EP4).

With `COC(=O)Nc1ccc(-c2cc(NCCn3c(C)cc4c(OC)ccc(F)c43)ncn2)cc1` [Example 1041, (4-{6-[2-(7-Fluoro-4-methoxy-2-methyl-indol-1-yl)-ethylamino]-pyrimidin-4-yl}-phenyl)-carbamic acid methyl ester], the half-maximal inhibitory concentration (IC50) against PTGER2 (EP2) worked out at 26 nM; against PTRGER4 (EP4), 246 nM.

In the case of `CCOc1cc(-c2cc(NCCn3c(C)cc4c(OC)ccc(F)c43)ncn2)ccc1NCC(=O)OC` [Example 1042, (2-Ethoxy-4-{6-[2-(7-fluoro-4-methoxy-2-methyl-indol-1-yl)-ethylamino]-pyrimidin-4-yl}-phenylamino)-acetic acid methyl ester], the 50% inhibitory concentration (IC50) stood at 11 nM on PTGER2 (EP2) and 57 nM against PTRGER4 (EP4).

In the case of `CCOc1cc(-c2cc(NCCn3c(C#N)cc4c(OC)ccc(F)c43)ncn2)sc1C(=O)OCC(=O)O` [Example 1043, 5-{6-[2-(2-Cyano-7-fluoro-4-methoxy-indol-1-yl)-ethylamino]-pyrimidin-4-yl}-3-ethoxy-thiophene-2-carboxylic acid carboxymethyl ester], the half-inhibitory concentration (IC50) at PTGER2 (EP2) amounted to 5 nM; against PTRGER4 (EP4), 1 nM.

For `CCOc1cc(-c2cc(NCCn3c(C#N)cc4c(OC)ccc(F)c43)ncn2)sc1C(=O)OCC(=O)N(C)C` [Example 1044, 5-{6-[2-(2-Cyano-7-fluoro-4-methoxy-indol-1-yl)-ethylamino]-pyrimidin-4-yl}-3-ethoxy-thiophene-2-carboxylic acid dimethylcarbamoylmethyl ester], the IC50 turned out to be 9 nM against PTGER2 (EP2) and 3 nM against PTRGER4 (EP4).

As to `CCCC(=O)OCOC(=O)c1sc(-c2cc(NCCn3c(C#N)cc4c(OC)ccc(F)c43)ncn2)cc1OCC` [Example 1045, 5-{6-[2-(2-Cyano-7-fluoro-4-methoxy-indol-1-yl)-ethylamino]-pyrimidin-4-yl}-3-ethoxy-thiophene-2-carboxylic acid butyryloxymethyl ester], the IC50 against PTGER2 (EP2) stood at 16 nM; on PTRGER4 (EP4) it was 4 nM.

For `CCOC(=O)OCOC(=O)c1sc(-c2cc(NCCn3c(C#N)cc4c(OC)ccc(F)c43)ncn2)cc1OCC` [Example 1046, 5-{6-[2-(2-Cyano-7-fluoro-4-methoxy-indol-1-yl)-ethylamino]-pyrimidin-4-yl}-3-ethoxy-thiophene-2-carboxylic acid ethoxycarbonyloxymethyl ester], the concentration for half-maximal inhibition (IC50) is 27 nM against PTGER2 (EP2) and 5 nM at PTRGER4 (EP4).

As to `CCOc1cc(-c2cc(NCCn3c(C#N)cc4c(OC)ccc(F)c43)ncn2)sc1C(=O)OCc1oc(=O)oc1C` [Example 1047, 5-{6-[2-(2-Cyano-7-fluoro-4-methoxy-indol-1-yl)-ethylamino]-pyrimidin-4-yl}-3-ethoxy-thiophene-2-carboxylic acid 5-methyl-2-oxo-[1,3]dioxol-4-ylmethyl ester], the results for the IC50 on PTGER2 (EP2) and on PTRGER4 (EP4) were 5 nM and 3 nM, respectively.

`CCOc1cc(-c2cc(NCCn3c(C#N)cc4c(OC)ccc(F)c43)ncn2)sc1C(=O)OCCN(C)C` [Example 1048, 5-{6-[2-(2-Cyano-7-fluoro-4-methoxy-indol-1-yl)-ethylamino]-pyrimidin-4-yl}-3-ethoxy-thiophene-2-carboxylic acid 2-dimethylamino-ethyl ester]: the half-maximal inhibitory concentration (IC50) against PTGER2 (EP2) amounted to 10 nM; against PTRGER4 (EP4), 4 nM.

As to `CCOc1cc(-c2cc(NCCn3c(C#N)cc4c(OC)ccc(F)c43)ncn2)sc1C(=O)Oc1ccccc1` [Example 1049, 5-{6-[2-(2-Cyano-7-fluoro-4-methoxy-indol-1-yl)-ethylamino]-pyrimidin-4-yl}-3-ethoxy-thiophene-2-carboxylic acid phenyl ester], the IC50 was 21 nM against PTGER2 (EP2) and 10 nM at PTRGER4 (EP4).

Regarding `CCOC(=O)C#Cc1ccc(-c2cc(NCCn3c(C#N)cc4c(OC)ccc(F)c43)ncn2)cc1OC` [Example 1050, (4-{6-[2-(2-Cyano-7-fluoro-4-methoxy-indol-1-yl)-ethylamino]-pyrimidin-4-yl}-2-methoxy-phenyl)-propynoic acid ethyl ester], the values for the half-inhibitory concentration (IC50) at PTGER2 (EP2) and at PTRGER4 (EP4) were 34 nM and 19 nM, respectively.

For the compound `CCOc1cc(-c2cc(NCCn3c(C)cc4c(OC)ccc(F)c43)ncn2)sc1-c1nnn[nH]1` [Example 1051, {6-[4-Ethoxy-5-(1H-tetrazol-5-yl)-thiophen-2-yl]-pyrimidin-4-yl}-[2-(7-fluoro-4-methoxy-2-methyl-indol-1-yl)-ethyl]-amine], the IC50 against PTGER2 (EP2) was determined as 2 nM; on PTRGER4 (EP4), 4 nM.

`CCOc1cc(-c2cc(NCCn3c(C)cc4c(OC)ccc(F)c43)ncn2)sc1C(=N)NO` [Example 1052, 3-Ethoxy-5-{6-[2-(7-fluoro-4-methoxy-2-methyl-indol-1-yl)-ethylamino]-pyrimidin-4-yl}-N-hydroxy-thiophene-2-carboxamidine]: the IC50 came out at 3 nM against PTGER2 (EP2) and 7 nM against PTRGER4 (EP4).

Consider `CCOc1cc(-c2cc(NCCn3c(C)cc4c(OC)ccc(F)c43)ncn2)sc1C(C)O` (centres unmarked) [Example 1053, 1-(3-Ethoxy-5-{6-[2-(7-fluoro-4-methoxy-2-methyl-indol-1-yl)-ethylamino]-pyrimidin-4-yl}-thiophen-2-yl)-ethanol], for which the half-inhibitory concentration (IC50) against PTGER2 (EP2) came out at 10 nM; against PTRGER4 (EP4) it was 100 nM.

On to `CCOc1cc(-c2cc(NCCn3c(C)cc4c(OC)ccc(F)c43)ncn2)sc1-c1noc(=O)[nH]1` [Example 1054, 3-(3-Ethoxy-5-{6-[2-(7-fluoro-4-methoxy-2-methyl-indol-1-yl)-ethylamino]-pyrimidin-4-yl}-thiophen-2-yl)-[1,2,4]oxadiazol-5(4H)-one], for which the half-maximal inhibitory concentration (IC50) at PTGER2 (EP2) and on PTRGER4 (EP4) was 1 nM each time.
